Measured values published in patent US4556715A, “Nicotinic acid derivatives” (Kyorin Pharmaceutical Co., Ltd., priority 1980, dated 1985).
Where two headings read alike, the source gives them in different places.

Experiments:
[1] = test system: serum and liver lipid levels in rats; assay: Serum and liver lipid levels and relative liver weight in rats (25 mg/kg, 10 days); format: in vivo, male Wistar rats; details: Table 4; for Liver lipid levels Ch / Liver lipid levels PL / Liver lipid levels TG / Relative liver weight / Serum lipid levels Ch / Serum lipid levels PL / Serum lipid levels TG: 25 mg/kg p.o. 10 days, Mean ± S.E. (n = 7); for Liver lipid levels Ch, relative to Control (100) / Liver lipid levels PL, relative to Control (100) / Liver lipid levels TG, relative to Control (100) / Relative liver weight, relative to Control (100) / Serum lipid levels Ch, relative to Control (100) / Serum lipid levels PL, relative to Control (100) / Serum lipid levels TG, relative to Control (100): in parentheses
Description: (3) The present compounds and KCD-232 were orally given to male Wistar rats weighing 160-180 g once a day at a dose of 25 mg/kg b.w. for 10 days. Rats were subjected to fast for 4 hr immediately after the last administration of compounds, thereafter they were sacrificed by decapitation and blood was collected, clotted and centrifuged to obtain serum. The liver was removed quickly and weighed. Total lipids were extracted from the serum and liver, and then the levels of total Ch, TG and PL were determined with colorimetric methods.

[2] = test system: serum and liver lipid levels in rats; assay: Serum and liver lipid levels and relative liver weight in rats (100 mg/kg, 10 days); format: in vivo, Male rats of the Wistar strain; details: for response vs control in vivo at 100 mg/kg: Rattus norvegicus, po; for response vs control in vivo at 100 mg/kg / Relative liver weight, relative to Control (100): in parentheses, Control = (100); for Liver lipid levels Ch / Liver lipid levels PL / Liver lipid levels TG / Relative liver weight / Serum lipid levels Ch / Serum lipid levels PL / Serum lipid levels TG: 100 mg/kg p.o. 10 days, Mean ± S.E. (n = 9)
Description: (2) Male rats of the Wistar strain weighing 160-180 g were fed a stock deit (CE-2, Japan CLEA, Tokyo) and water ad libitum. The present compounds and KCD-232 were suspended, respectively, in a 0.5% of CMC solution and give orally to rats once a day at a dose of 100 mg/kg b.w. for 10 days.
Control rats were received the 0.5% CMC solution alone. The diet was withdrawn immediately after the last administration of compounds. Animals were sacrificed by decapitation 4 hr after the last administration and blood was collected, clotted and centrifuged to obtain serum. The liver was excised quickly and weighed. Total lipids were extracted from the serum and liver, and the levels of Ch, TG and PL were determined colorimetrically.

in vivo = details: mouse, po, p o, male ICR mice
Text: The present compounds were given to 6 week-old male mice of the ICR strain and their acute toxicity was examined.

SMILES | Liver lipid levels Ch [1] | Liver lipid levels PL [1] | Liver lipid levels TG [1] | Relative liver weight [1] | Serum lipid levels Ch [1] | Serum lipid levels PL [1] | Serum lipid levels TG [1] | Liver lipid levels Ch, relative to Control (100) [1] | Liver lipid levels PL, relative to Control (100) [1] | Liver lipid levels TG, relative to Control (100) [1] | Relative liver weight, relative to Control (100) [1] | Serum lipid levels Ch, relative to Control (100) [1] | Serum lipid levels PL, relative to Control (100) [1] | Serum lipid levels TG, relative to Control (100) [1] | LD50 (in vivo) | other results
O=C(OCCCc1ccc(OCc2ccc(Cl)cc2)cc1)c1cccnc1 [n1=1, n2=3, 3-[4-(4-Chlorobenzyloxy)phenyl]propyl nicotinate] | 3.23 ± 0.17 mg/g liver | 38.2 ± 0.5 mg/g liver | 3.80 ± 0.50 mg/g liver | 3.53 ± 0.08 g/100 g b.w. | 66.4 ± 5.3 mg/dL | 85.8 ± 4.8 mg/dL | 29.2 ± 1.7 mg/dL | 99.4 | 100.5 | 51.1 | 100 | 84.7 | 79.3 | 77.2 | > 4000 mg/kg | response vs control in vivo at 100 mg/kg ([2]; 240 h, Table 3, read-out: Liver lipid levels PL, relative to Control (100)): 96.1%; response vs control in vivo at 100 mg/kg ([2]; Table 3, read-out: Liver lipid levels Ch, relative to Control (100)): 97.8%; response vs control in vivo at 100 mg/kg ([2]; Table 3, read-out: Liver lipid levels TG, relative to Control (100)): 73%; response vs control in vivo at 100 mg/kg ([2]; Table 3, read-out: Serum lipid levels Ch, relative to Control (100)): 83.7%; response vs control in vivo at 100 mg/kg ([2]; Table 3, read-out: Serum lipid levels PL, relative to Control (100)): 79.4%; response vs control in vivo at 100 mg/kg ([2]; Table 3, read-out: Serum lipid levels TG, relative to Control (100)): 63.3%; Liver lipid levels Ch ([2]; Table 3): 2.27 ± 0.09 mg/g liver; Liver lipid levels PL ([2]; Table 3): 34.8 ± 0.5 mg/g liver; Liver lipid levels TG ([2]; Table 3): 5.24 ± 0.40 mg/g liver; Relative liver weight ([2]; Table 3): 3.70 ± 0.05 g/100 g b.w.; Serum lipid levels Ch ([2]; Table 3): 81.7 ± 2.7 mg/dL; Serum lipid levels PL ([2]; Table 3): 124 ± 5.5 mg/dL; Serum lipid levels TG ([2]; Table 3): 79.5 ± 10.4 mg/dL; Relative liver weight, relative to Control (100) ([2]; Table 3): 98
O=C(OCc1ccc(OCCCCCCc2ccc(Cl)cc2)cc1)c1cccnc1 [n1=6, n2=1, 4-[6-(4-Chlorophenyl)hexyloxy]benzyl nicotinate] | 3.14 ± 0.17 mg/g liver | 38.9 ± 0.8 mg/g liver | 3.03 ± 0.41 mg/g liver | 3.91 ± 0.08 g/100 g b.w. | 54.2 ± 4.9 mg/dL | 72.2 ± 5.6 mg/dL | 24 ± 2.1 mg/dL | 96.7 | 102.4 | 40.7 | 111 | 69.1 | 66.7 | 63.5 | > 4000 mg/kg | response vs control in vivo at 100 mg/kg ([2]; 240 h, Table 2, read-out: Liver lipid levels PL, relative to Control (100)): 109%; response vs control in vivo at 100 mg/kg ([2]; Table 2, read-out: Liver lipid levels Ch, relative to Control (100)): 94.4%; response vs control in vivo at 100 mg/kg ([2]; Table 2, read-out: Liver lipid levels TG, relative to Control (100)): 73.9%; response vs control in vivo at 100 mg/kg ([2]; Table 2, read-out: Serum lipid levels Ch, relative to Control (100)): 74.6%; response vs control in vivo at 100 mg/kg ([2]; Table 2, read-out: Serum lipid levels PL, relative to Control (100)): 65.9%; response vs control in vivo at 100 mg/kg ([2]; Table 2, read-out: Serum lipid levels TG, relative to Control (100)): 25.6%; Liver lipid levels Ch ([2]; Table 2): 2.87 ± 0.08 mg/g liver; Liver lipid levels PL ([2]; Table 2): 41.6 ± 0.5 mg/g liver; Liver lipid levels TG ([2]; Table 2): 4.67 ± 0.32 mg/g liver; Relative liver weight ([2]; Table 2): 4.17 ± 0.07 g/100 g b.w.; Serum lipid levels Ch ([2]; Table 2): 64.7 ± 3 mg/dL; Serum lipid levels PL ([2]; Table 2): 97.8 ± 3.8 mg/dL; Serum lipid levels TG ([2]; Table 2): 31.7 ± 2.8 mg/dL; Relative liver weight, relative to Control (100) ([2]; Table 2): 108
